Assays:
CCRF-CEM [1] = assay: Effective concentration of compound against HIV-1 infected CEM/O cells; type: functional, cell-based; conditions: Homo sapiens
CCRF-CEM [2] = assay: Cytotoxic activity was evaluated against CEM/O cells; type: functional; conditions: Homo sapiens
CCRF-CEM [3] = assay: Effective concentration of compound against HIV-2 infected CEM/O cells; type: functional, cell-based; conditions: Homo sapiens
[4] = Partition coefficient was measured in 1-octanol/phosphate buffer (pH 6.8); type: physicochemical
[5] = Hydrolysis half-life (t1/2) in phosphate buffer at pH 7.3; type: ADME
CCRF-CEM [6] = assay: Effective concentration of compound against HIV-1 infected CEM/O cells; No activity up to > 250 uM; type: functional, cell-based, Homo sapiens
CCRF-CEM [7] = assay: Cytotoxic activity was evaluated against CEM/O cells; No activity up to > 250 uM; type: functional, cell-based, Homo sapiens
CCRF-CEM [8] = assay: Effective concentration of compound against HIV-2 infected CEM/O cells; No activity up to > 250 uM; type: functional, cell-based, Homo sapiens

Nc1ncnc2c1ncn2[C@H]1CC[C@@H](CO)O1
EC50 (CCRF-CEM [1]): 3.67 µM | CC50 (CCRF-CEM [2]): 200 µM | EC50 (CCRF-CEM [3]): 5.33 µM | logD [4]: -0.28

COc1ccc2c(c1)COP(=O)(OCC1CCC(n3cnc4c(N)ncnc43)O1)O2 (stereo not drawn)
EC50 (CCRF-CEM [1]): 0.065 µM | CC50 (CCRF-CEM [2]): 30.4 µM | EC50 (CCRF-CEM [3]): 0.09 µM | half-life [5]: 14 h | logD [4]: 0.61

Cc1cccc2c1OP(=O)(OCC1CCC(n3cnc4c(N)ncnc43)O1)OC2 (stereo not drawn)
EC50 (CCRF-CEM [1]): 0.03 µM | CC50 (CCRF-CEM [2]): 9.54 µM | EC50 (CCRF-CEM [3]): 0.035 µM | half-life [5]: 35.1 h | logD [4]: 0.91

Cc1cccc(O)c1CO
EC50 (CCRF-CEM [6]): Not Active | EC50 (CCRF-CEM [7]): Not Active | EC50 (CCRF-CEM [8]): Not Active

COc1ccc(CO)c(O)c1
EC50 (CCRF-CEM [6]): Not Active | EC50 (CCRF-CEM [7]): Not Active | EC50 (CCRF-CEM [8]): Not Active

Nc1ncnc2c1ncn2C1CCC(COP2(=O)OCc3ccccc3O2)O1 (stereo not drawn)
EC50 (CCRF-CEM [1]): 0.12 µM | CC50 (CCRF-CEM [2]): 21.9 µM | EC50 (CCRF-CEM [3]): 0.11 µM | half-life [5]: 8.2 h | logD [4]: 0.54

OCc1ccccc1O [SALICYL ALCOHOL]
EC50 (CCRF-CEM [6]): Not Active | EC50 (CCRF-CEM [7]): Not Active | EC50 (CCRF-CEM [8]): Not Active
